According to US9493464B2, “Wee1 degradation inhibitors” (The Scripps Research Institute, priority 2012, dated 2016):
Several values for one entry are separate records, joined by “and”; a condition that tells them apart may be missing. Identical values can stand only once.

Legend:
FLT3 = target: T1, FLT3 (Homo sapiens, UniProt P36888); experiment: In vitro kinase assay, FLT3 (Reaction Biology Corporation); assay type: biochemical; settings: determined by Reaction Biology Corporation; read-out: IC50 FLT3
T1 construct: Reaction Biology Corporation (contract assay)
T1 sequence (P36888 27-993): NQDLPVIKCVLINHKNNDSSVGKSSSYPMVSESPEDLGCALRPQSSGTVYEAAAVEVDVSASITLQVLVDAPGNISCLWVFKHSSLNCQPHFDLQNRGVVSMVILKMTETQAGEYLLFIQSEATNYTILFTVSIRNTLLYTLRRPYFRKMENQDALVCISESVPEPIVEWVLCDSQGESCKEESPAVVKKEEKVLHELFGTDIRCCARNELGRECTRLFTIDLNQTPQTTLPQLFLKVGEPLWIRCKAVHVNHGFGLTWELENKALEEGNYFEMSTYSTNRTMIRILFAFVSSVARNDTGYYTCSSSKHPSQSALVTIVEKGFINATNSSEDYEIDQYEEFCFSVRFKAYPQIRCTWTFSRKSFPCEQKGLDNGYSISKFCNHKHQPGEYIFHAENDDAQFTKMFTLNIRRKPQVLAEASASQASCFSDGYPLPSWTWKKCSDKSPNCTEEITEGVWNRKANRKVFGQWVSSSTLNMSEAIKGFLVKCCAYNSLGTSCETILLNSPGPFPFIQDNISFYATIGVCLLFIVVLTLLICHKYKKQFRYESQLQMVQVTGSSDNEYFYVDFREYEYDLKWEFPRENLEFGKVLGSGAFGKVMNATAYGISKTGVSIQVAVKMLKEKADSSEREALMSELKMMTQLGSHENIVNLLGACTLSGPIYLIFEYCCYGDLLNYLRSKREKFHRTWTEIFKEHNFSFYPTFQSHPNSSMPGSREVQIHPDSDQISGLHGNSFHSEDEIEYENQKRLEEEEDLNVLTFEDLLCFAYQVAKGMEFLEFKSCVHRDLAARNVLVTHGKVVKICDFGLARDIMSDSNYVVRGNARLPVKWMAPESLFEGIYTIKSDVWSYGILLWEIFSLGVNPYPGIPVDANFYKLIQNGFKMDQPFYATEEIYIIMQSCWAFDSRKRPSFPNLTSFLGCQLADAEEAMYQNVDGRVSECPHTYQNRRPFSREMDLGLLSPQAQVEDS
Protocol: (§1) Compounds were tested in 10-dose IC50 mode with 3-fold serial dilution starting at 50 μM. […] Reactions were carried out at 10 μM ATP. Average and standard deviations of reactions carried out in triplicate are shown.
(§2) In vitro kinase assay to detect CK1 or FLT3 activity: CK1 and FLT3 assays as well as complete kinase profile of 296 kinases was performed by Reaction Biology Corporation. For FLT3 20 μM final Abltide was used, sequence: [[…]]. For CK1 (all isoforms) 20 μM CK1 tide was used, sequence: [KRRRAL[pS]VASLPGL] in a standard kinase assay with ^32P-ATP and purified kinase. Incorporation of ^32P-ATP into the peptide was measured after a filter-binding assay. In-house CK1d inhibition assays were performed using a standard homogenous time-resolved fluorescence resonance energy transfer (TR-FRET) format in 50 mM Hepes, pH 7.0, 2.5 mM MgCl2, 0.1 mg/ml bovine serum albumin, 1 mM DL-dithiothreitol, 0.01% Triton X-100 (all from Sigma-Aldrich). Briefly, the CK1δ substrate (DEKTDDE, containing CK1 consensus sequence; 4 μL of a 500 nM stock solution) is labeled with a small Ulight acceptor dye (PerkinElmer). In the presence of 10 μL of 10 nM CK1δ, the Ulight peptide is phosphorylated at a single amino acid that is specifically recognized by a europium chelate (Eu)-labeled phosphospecific antibody. Assays were performed in the presence of 2 μL of compound at different (measured) concentrations, and reactions were stopped by adding 10 μL of 4 nM Eu-anti-p-Topo-IIa (PerkinElmer) in Lance Detection Buffer (Perkin Elmer). Upon excitation of the Eu-labeled antibody, energy is transferred to the acceptor dye resulting in the emission of detected light at 665 nm.

K328M-Wee1-luciferase = experiment: Wee1-luciferase assay (stabilization of K328M-Wee1-luciferase); assay type: cell-based; settings: for % Inhibition, Wee1 Degradation: at 250 nM, reported relative to SR-1277 = 100%; for EC50: read-out: Wee1 Stabilization
Excerpt: Steady-state level of K328M-Wee1-Luciferase (K328M-Wee1-Luc) was divided by Luciferase level (Luc) and plotted.
(§3) Similar assays have previously been described; PubChem AID 1807.

CK1δ = CK1δ (Homo sapiens, UniProt P48730); experiment: In vitro kinase assay, CK1d, 32P-ATP filter binding (Reaction Biology Corporation); assay type: biochemical; settings: footnote a: determined by Reaction Biology Corporation; read-out: IC50 CK1d
Protocol: as §1, §2

[1] = tested on: cerebellar granule cell progenitors (GCPs); experiment: In vitro proliferation of cerebellar granule cell progenitors (3H-thymidine uptake); assay type: cell-based, mouse; settings: 24 hours; result in words
Protocol: GCPs were incubated with DMSO, 5 μM D4476 (known CK1δ and CK1ε inhibitor), or 50 μM D4476 and processed for ^3H-thymidine incorporation after 24 hours. A representative experiment performed in triplicate is shown.

Luciferase = Luciferase alone control (PGL3 vector); assay type: cell-based; settings: HeLa cells; result in words
Protocol: The percentage of signal relative to the proteasome inhibitor MG132 is shown. […] A Western blot is shown of endogenous Wee1 or Skp1 (loading control) of HeLa cells incubated with 5 μM of indicated compounds for 24 hours. […] The 0 time point was set to 100%. […] The extent of degradation was measured as in FIG. D.
5 μM of indicated compounds were incubated with K328M-Wee1-Luciferase or Luciferase expressing HeLa cells and the extent of stabilization measured after adding Brite-lite. MG132 was used as a positive control.
as §3

SNB-75 (CNS) = experiment: NCI Dose Growth Inhibition assay (NCI-60); assay type: cell-based; settings: Homo sapiens; SNB-75 (CNS); read-out: GI50
Protocol: (§4) Table 3, below, illustrates the activity of some of the compounds of the present invention in the National Cancer Institute's Dose Growth Inhibition assay against several human tumor cell lines selected from the NCI-60 panel.
(§5) NCI-60 Cancer Cell Line Screening was performed by the National Cancer Institute, using the procedures described on their website (http://dtp.nci.nih.gov/branches/btb/ivelsp.html)

MDA-MB-468 (breast) = experiment: NCI Dose Growth Inhibition assay (NCI-60); assay type: cell-based; settings: Homo sapiens; MDA-MB-468 (breast); read-out: GI50
Protocol: as §4, §5

UACC-62 (melanoma) = experiment: NCI Dose Growth Inhibition assay (NCI-60); assay type: cell-based; settings: Homo sapiens; UACC-62 (melanoma); read-out: GI50
Protocol: as §4, §5

RXF393 (renal) = experiment: NCI Dose Growth Inhibition assay (NCI-60); assay type: cell-based; settings: Homo sapiens, RXF 393; RXF393 (renal); read-out: GI50
Protocol: as §4, §5

COLO 205 (colon) = experiment: NCI Dose Growth Inhibition assay (NCI-60); assay type: cell-based; settings: Homo sapiens; COLO 205 (colon); read-out: GI50
Protocol: as §4, §5

A498 (renal) = experiment: NCI Dose Growth Inhibition assay (NCI-60); assay type: cell-based; settings: Homo sapiens; A498 (renal); read-out: GI50
Protocol: as §4, §5

Sequence of CK1δ (P48730 whole entry): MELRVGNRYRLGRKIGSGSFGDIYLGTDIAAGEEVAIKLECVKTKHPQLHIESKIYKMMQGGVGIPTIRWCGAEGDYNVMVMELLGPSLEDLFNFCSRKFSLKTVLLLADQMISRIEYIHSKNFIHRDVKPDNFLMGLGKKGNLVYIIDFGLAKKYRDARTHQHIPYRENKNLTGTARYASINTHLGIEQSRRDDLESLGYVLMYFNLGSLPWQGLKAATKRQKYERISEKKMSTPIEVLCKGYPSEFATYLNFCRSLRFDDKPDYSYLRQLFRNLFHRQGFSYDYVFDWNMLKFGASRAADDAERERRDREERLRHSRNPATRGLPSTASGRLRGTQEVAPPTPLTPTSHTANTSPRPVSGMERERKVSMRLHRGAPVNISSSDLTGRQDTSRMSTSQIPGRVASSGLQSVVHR

SMILES | IC50 (FLT3) | IC50 (CK1δ) | % Inhibition, Wee1 Degradation (K328M-Wee1-luciferase) | also measured
NC(=O)c1ccc(-c2nc(-c3ccc4c(c3)OCCO4)c(-c3ccccn3)[nH]2)cc1 [Compound D4476, reference compound] | – | – | – | inhibition of GCP proliferation (3H-thymidine) [1]: inhibited GCP proliferation; Luciferase levels (Luciferase): does not affect Luciferase levels; stabilization of K328M-Wee1-luciferase (K328M-Wee1-luciferase; HeLa cells, result in words): stabilizes K328M-Wee1-luciferase
CCOC(=O)c1cccc2[nH]c(CNc3nc(N4CCOCC4)nc4c3ncn4-c3ccsc3)nc12 [SR-1282] | 548 nM | 361 nM | 97.3% | EC50 (K328M-Wee1-luciferase): 207 nM
Cn1c(CNc2nc(N3CCOCC3)nc3c2ncn3-c2ccsc2)nc2ccccc21 [SR-2001] | 125 nM | 22 nM | 1.7% | –
Clc1ccc2[nH]c(CNc3nc(N4CCOCC4)nc4c3ncn4-c3ccoc3)nc2c1 [SR-2850] | 129 nM | 23 nM | – | –
CN1CCN(c2nc(NCc3nc4ccccc4[nH]3)c3ncn(-c4ccsc4)c3n2)CC1 [SR-1294] | 68 nM | 11 nM | 14.1% | –
Fc1cccc(-n2cnc3c(NCc4nc5cc(Cl)ccc5[nH]4)nc(N4CCNCC4)nc32)c1 [SR-2890] | 809 nM | 4 nM | – | GI50 (SNB-75 (CNS)): 46 nM; GI50 (MDA-MB-468 (breast)): 12 nM; GI50 (UACC-62 (melanoma)): 182 nM; GI50 (RXF393 (renal)): 41 nM; GI50 (COLO 205 (colon)): 29 nM; GI50 (A498 (renal)): 207 nM
O=[N+]([O-])c1cccc2[nH]c(CNc3nc(N4CCOCC4)nc4c3ncn4-c3ccoc3)nc12 [SR-2007] | 345 nM | 18 nM and 19 nM | 81.1% | –
COc1ccc2[nH]c(CNc3nc(N4CCNCC4)nc4c3ncn4-c3ccoc3)nc2c1 [SR-2891] | 782 nM | 11 nM | – | GI50 (SNB-75 (CNS)): 24 nM; GI50 (MDA-MB-468 (breast)): < 10 nM; GI50 (UACC-62 (melanoma)): 174 nM; GI50 (RXF393 (renal)): 49 nM; GI50 (COLO 205 (colon)): 30 nM; GI50 (A498 (renal)): 321 nM
c1ccc2[nH]c(CNc3nc(N4CCOCC4)nc4c3ncn4C3CCCC3)nc2c1 [SR-2149] | 401 nM | 46 nM | 6.1% | –
c1ccc2[nH]c(CNc3nc(N4CCNCC4)nc4c3ncn4-c3ccsc3)nc2c1 [SR-1292] | 16 nM | 3 nM | 14.5% | –
Clc1ccc2[nH]c(CNc3nc(N4CCNCC4)nc4c3ncn4-c3ccoc3)nc2c1 [SR-2889] | 82 nM | 5 nM | – | GI50 (SNB-75 (CNS)): < 10 nM; GI50 (MDA-MB-468 (breast)): < 10 nM; GI50 (UACC-62 (melanoma)): 17 nM; GI50 (RXF393 (renal)): < 10 nM; GI50 (COLO 205 (colon)): < 10 nM; GI50 (A498 (renal)): 24 nM
CN1CCN(c2nc(NCc3nc4cc(F)ccc4[nH]3)c3ncn(-c4ccoc4)c3n2)CC1 [SR-2866] | 216 nM | 20 nM | – | –
CC(C)n1cnc2c(NCc3nc4c([N+](=O)[O-])cccc4[nH]3)nc(N3CCOCC3)nc21 [SR-1284] | 28000 nM | 815 nM | 111.2% | EC50 (K328M-Wee1-luciferase): 201 nM
COc1ccc2[nH]c(CNc3nc(N4CCN(C)CC4)nc4c3ncn4-c3ccoc3)nc2c1 [SR-2848] | 298 nM | 29 nM | – | –
CN1CCN(c2nc(NCc3nc4cc(Cl)ccc4[nH]3)c3ncn(-c4ccoc4)c3n2)CC1 [SR-2849] | 182 nM | 11 nM | – | GI50 (SNB-75 (CNS)): 19 nM; GI50 (MDA-MB-468 (breast)): < 10 nM; GI50 (UACC-62 (melanoma)): 130 nM; GI50 (RXF393 (renal)): 17 nM; GI50 (COLO 205 (colon)): 25 nM; GI50 (A498 (renal)): 113 nM

Now from value to compound, other results behind:

IC50 (FLT3) | IC50 (CK1δ) | SMILES | % Inhibition, Wee1 Degradation (K328M-Wee1-luciferase) | also measured
240 nM | 21 nM | O=[N+]([O-])c1ccc2[nH]c(CNc3nc(N4CCOCC4)nc4c3ncn4-c3ccsc3)nc2c1 [SR-1278] | 18.7% | –
4740 nM | 522 nM | FC(F)(F)c1cc(Br)c2nc(CNc3nc(N4CCOCC4)nc4c3ncn4-c3ccsc3)[nH]c2c1 [SR-1285] | 13.4% | –
975 nM | 129 nM | c1ccc2cc3[nH]c(CNc4nc(N5CCOCC5)nc5c4ncn5-c4ccsc4)nc3cc2c1 [SR-1280] | 48.3% | –
509 nM | 13 nM | FC(F)(F)c1ccc2[nH]c(CNc3nc(N4CCOCC4)nc4c3ncn4-c3ccsc3)nc2c1 [SR-1273] | 46.3% | –
301 nM | 105 nM | Clc1ccc2[nH]c(CNc3nc(N4CCOCC4)nc4c3ncn4-c3ccsc3)nc2c1 [SR-1274] | 101.2% | EC50 (K328M-Wee1-luciferase): 164 nM
69 nM | 10 nM | CS(=O)(=O)c1ccc2[nH]c(CNc3nc(N4CCOCC4)nc4c3ncn4-c3ccsc3)nc2c1 [SR-2797] | – | –
79 nM | 50 nM | Fc1ccc2[nH]c(CNc3nc(N4CCOCC4)nc4c3ncn4-c3ccsc3)nc2c1 [SR-1275] | 81.4% | –
62 nM | 11 nM | N#Cc1ccc2[nH]c(CNc3nc(N4CCOCC4)nc4c3ncn4-c3ccsc3)nc2c1 [SR-1276] | 85.9% | –
57 nM | 16 nM | CS(=O)(=O)c1cccc2[nH]c(CNc3nc(N4CCOCC4)nc4c3ncn4-c3ccsc3)nc12 [SR-2805] | – | –
14 nM | 17 nM | COc1ccc2[nH]c(CNc3nc(N4CCOCC4)nc4c3ncn4-c3ccsc3)nc2c1 [SR-1279] | 79.5% | –
262 nM | 128 nM | FC(F)(F)c1cccc2[nH]c(CNc3nc(N4CCOCC4)nc4c3ncn4-c3ccsc3)nc12 [SR-1272] | 10.8% | –
